These results are taken from PubChem BioAssay AID602296 (Broad Institute, 2012).

SMILES strings stand for the structures. Records with an inconclusive call do not appear. Calls of active or inactive are those of the source.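 How the source made its calls: active means fitted activation curve crossing 40% at a concentration no higher than the sample's top valid tested dose; inconclusive means flat fitted curve at 30% to 70% activation, or poor curve fit; inactive means signal decrease, flat curve within 30%, or the rest.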

The subject of the assay is NIH3T3-HGL HSF-1 response element luciferase, 48 h. Description: sustained heat shock response element induction – cell-based, mouse, luciferase, cherry-pick, dose, confirmation (AID 602296).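 Further: test compounds applied by themselves with no MG132 co-treatment.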
Take `NC(N)=NS(=O)(=O)c1ccc(NC(=S)NC(=O)c2ccc(Br)cc2)cc1`: the AC40 was 17.5 µM.
`Cc1cccc(N=Nc2c(C)c(C#N)c(O)[nH]c2=O)c1`: the AC40 is > 26 µM (inactive).
Turning to `Cc1noc2ncnc(Sc3ccc(Br)cc3)c12`, the AC40 is > 26 µM (inactive).
For `CCC(Sc1nc2cc3c(cc2c(=O)n1Cc1ccco1)OCO3)C(=O)NCCOC` (centres undefined) the value was > 26 µM (inactive); for `Cc1ccc(CN(C)C(=O)C2CCC(=O)N(CCc3ccccc3)C2)o1` (centres undefined), 9.82 µM; for `CC(C)(C)c1cc(NC(=O)CCSc2nnc3ccccn23)cc(C(C)(C)C)c1`, > 26 µM (inactive).
As to `Cc1ccccc1-n1nnc2c(=O)oc3ccccc3c21`, the AC40 was > 26 µM (inactive).
Regarding `Nc1nnc(SCC(=O)Nc2cccc3ccccc23)s1`, the AC40 was > 26 µM (inactive).
With `COC(=O)/C=C1/N/C(=N\c2nc(C)cc(C)n2)N(c2ccc(C)c(C)c2)C1=O`, the AC40 was > 26 µM (inactive).
With `COc1ccc2cc(/C=C/C(=O)N3CCN(CC(=O)N4CCCCCC4)CC3)ccc2c1`, the AC40 was 12.6 µM.
As to `Cc1ccc(NC(=O)c2cc3c(=O)oc4ccccc4c3s2)nc1`, the AC40 is > 26 µM (inactive).
For `Cc1ccc(/C=C2/NC(=O)N(Cc3ccc(Br)cc3)C2=O)o1` the value was > 26 µM (inactive).
Consider `COC(=O)c1cnc(N2CCCN(S(=O)(=O)c3ccc(C(F)(F)F)cc3)CC2)nc1C(F)(F)F`, for which the AC40 was > 26 µM (inactive).
Take `O=C(CSc1nccn(-c2ccc(F)c(F)c2)c1=O)NC1CCCC1`: the AC40 was > 26 µM (inactive).
For the compound `Cc1nc2scc(-c3ccc(Cl)cc3)c2c(=O)n1N`, the AC40 was > 26 µM (inactive).
As for `Oc1ccc(NC(=S)Nc2ccccc2)cc1`, the AC40 is > 26 µM (inactive).
For the compound `O=C(O)c1c(Cl)c(Cl)c(Cl)c(Cl)c1C(=O)N1CCCC1`, the AC40 was > 26 µM (inactive).
With `Cn1cc(C=O)c(-c2ccc3c(c2)OCCCO3)n1`, the AC40 was 3.77 µM.
Take `c1ccc2c(Nc3nnc(-c4ccncc4)s3)cccc2c1`: the AC40 is 1.24 µM.
`Cc1ccc2cccnc2c1NC(=S)NC(=O)c1ccccc1`: the AC40 is > 26 µM (inactive).
For `O=C(O)CC1=C(Nc2ccccc2)C(=O)N(c2ccccc2)C1c1ccc(Cl)cc1` (centres undefined) the value was 5.67 µM; for `Cc1cccc(CN(C(=S)Nc2c(C)cccc2C)c2cccnc2)c1`, 24.7 µM.
In the case of `Cc1ccc2nc(SCC(=O)NCc3ccc(F)cc3)[nH]c2c1`, the AC40 was > 26 µM (inactive).
As for `Cc1c(/C=N/NC(=O)c2ccc(Br)o2)cnn1C`, the AC40 was 22.4 µM.
In the case of `O=C(O)CN1C(=O)/C(=C\c2cc(Br)ccc2OCc2ccc(F)cc2)SC1=S` it was > 26 µM (inactive).
In the case of `CC(C)Nc1nc(Cl)nc(N(C#N)CN2C(=O)c3ccccc3C2=O)n1` it was > 26 µM (inactive).
In the case of `ON=C1c2ccccc2-c2ccccc21`, the AC40 is 15.8 µM.
In the case of `COc1c(Br)cc(Br)cc1C(=O)O` it was > 26 µM (inactive); in that of `O=C(NCCN1CCN(C(=O)c2ccc(Br)cc2)CC1)c1ccc(Br)cc1`, > 26 µM (inactive).
Turning to `Cc1ccccc1/[N+]([O-])=C/c1cccs1`, the AC40 was > 26 µM (inactive).
`Cc1ccc(S(=O)(=O)N(CC(=O)NCc2ccco2)Cc2ccc(F)cc2)cc1`: the AC40 was > 26 µM (inactive).
`CC(=O)Oc1ccc(Cn2cnc3cc4ccccc4cc32)cc1`: the AC40 was 14.7 µM.
`CC(=O)N1N=C(c2ccccc2)CC1c1ccccc1[N+](=O)[O-]` (centres undefined): the AC40 is 16 µM.
As to `CC1CCCCN1C(=O)COc1ccccc1F` (centres undefined), the AC40 is 21.2 µM.
`Cn1c2ccc(F)cc2c2ncn(CCN3CCOCC3)c(=O)c21`: the AC40 was > 26 µM (inactive).
Regarding `COc1ccc(/C=C\c2nc(=O)c3ccccc3o2)cc1`, the AC40 was > 26 µM (inactive).
Regarding `OCC1(CCCc2ccccc2)CCN(C2CCSCC2)CC1`, the AC40 was > 26 µM (inactive).
`COC(=O)C1NN=C(C(=O)c2ccc(Cl)cc2)C1c1ccc(OC)cc1` (centres undefined): the AC40 is > 26 µM (inactive).
For `Cc1cccc(C)c1NC(=O)COC(=O)c1cccc2c1C(=O)c1ccccc1C2=O` the value was > 26 µM (inactive); for `Cc1cc2c(cc1C)-c1nnnn1C(C)(C)C2`, > 26 µM (inactive).
As for `CC1=C(C(=O)N2CCOCC2)C(c2c(C)cc(C)cc2C)NC(=S)N1` (centres undefined), the AC40 is > 26 µM (inactive).
Regarding `CC1(C)CC(=O)C=C(NC2=CC3OC(c4ccccc4)OCC3OC2=O)C1` (centres undefined), the AC40 was 13.2 µM.
In the case of `C=CC[n+]1c(-c2ccc(OC)cc2)csc1NNC(=O)Nc1ccccc1` it was > 12 µM (inactive); in that of `CCCCOc1ccc(C(=O)N/N=C/c2cn[nH]c2-c2ccc(OC)c(OC)c2)cc1`, > 26 µM (inactive); in that of `CC(C)(C)NC(=O)NC(=O)CN1CC=C(c2ccccc2)CC1`, > 26 µM (inactive).
For `CCCc1nc(SCC(=O)Nc2cc(C)on2)c2ccccc2n1`, the AC40 was > 26 µM (inactive).
`Cc1[nH]n(-c2ccccc2)c(=O)c1C=NCCc1ccccc1`: the AC40 was 9.52 µM.
Turning to `COc1ccc(-c2nc3scc(-c4ccccc4)n3n2)cc1`, the AC40 is 3.34 µM.
On to `O=C(NNc1cccc(Cl)n1)Nc1ccc(Cl)cc1`, for which the AC40 was > 26 µM (inactive).
For `Fc1cc(NCc2ccccc2)nc(NCc2ccccc2)n1` the value was 9.52 µM; for `O=C(N/N=C/CCc1ccccc1)c1ccccc1`, 15.5 µM.
For `O=C(CC(c1ccco1)S(=O)(=O)c1ccccc1)c1ccc(F)cc1` (centres undefined), the AC40 was > 26 µM (inactive).
With `CCOC(=O)C1CCN(C(=O)c2ccc3c(Cl)c4c(nc3c2)CCCC4)CC1`, the AC40 is > 26 µM (inactive).
On to `Cc1ccccc1NC(=O)C1CCCN(C(=O)NCc2ccccc2)C1` (centres undefined), for which the AC40 was > 26 µM (inactive).
For `COc1cccc(N=Nc2c(O)[nH]c(=S)[nH]c2=O)c1` the value was 10.1 µM; for `O=c1c2ccccc2[nH]c(=S)n1CCC1=CCCCC1`, 11.3 µM; for `O=C(O)C1CCCCC1C(=O)Nc1ccc2c(c1)CCC2` (centres undefined), 5.08 µM.
For `O=C(O)c1csc(N/N=C/c2ccc(Br)cc2)n1`, the AC40 is > 26 µM (inactive).
For `COC(=O)c1ccc(N(CC(=O)NC2CCCCC2)C(=O)CNC(=O)c2ccco2)cc1` the value was > 26 µM (inactive).
Turning to `O=C(NCc1ccc(N2CCCC2=O)cc1)Nc1ccccc1`, the AC40 is > 26 µM (inactive).
With `Nc1nnc(SCc2c(F)cccc2Cl)s1`, the AC40 was 14.4 µM.
Consider `Nc1cc(-c2ccco2)no1`, for which the AC40 was > 26 µM (inactive).
For `CCOc1cc(C(=S)N2CCOCC2)ccc1OS(=O)(=O)c1ccc(C)cc1`, the AC40 was > 26 µM (inactive).
With `Cc1onc(-c2ccccc2)c1C(=O)OCc1nnc(-c2ccccc2)o1`, the AC40 is > 26 µM (inactive).
For `CN(NC1OC(=O)c2ccccc21)c1ncc(Cl)cc1C(F)(F)F` (centres undefined) the value was > 26 µM (inactive); for `O=C(Nc1cccn(Cc2c(Cl)cccc2Cl)c1=O)c1ccccc1Cl`, > 26 µM (inactive); for `O=C(CSc1ccc(Cl)cc1)N1CCN(c2c(Cl)cccc2[N+](=O)[O-])CC1`, 3.34 µM.
For `Cc1ccc(CNC(=O)CSc2ccsc2[N+](=O)[O-])cc1`, the AC40 is 0.83 µM.
For `Cc1cc(-c2nnc(CCC(=O)N(C)Cc3cccc4ccccc34)o2)no1`, the AC40 is 12 µM.
